We go through 3 molecules from ChEMBL document CHEMBL1201862, “PubChem BioAssay data set” (2004).

One assay addresses T1, Caspase-3 (Homo sapiens, UniProt P42574).
T1 sequence (P42574 whole entry): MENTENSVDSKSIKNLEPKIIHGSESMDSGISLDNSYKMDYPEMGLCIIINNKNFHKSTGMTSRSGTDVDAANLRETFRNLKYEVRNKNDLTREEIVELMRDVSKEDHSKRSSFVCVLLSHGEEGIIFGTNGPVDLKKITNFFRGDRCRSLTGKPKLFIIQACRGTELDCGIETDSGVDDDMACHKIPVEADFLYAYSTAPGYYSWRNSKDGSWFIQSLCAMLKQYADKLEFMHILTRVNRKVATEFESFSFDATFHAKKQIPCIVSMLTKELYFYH
It counts as functional.

A short description of assay [1]: THP-1 cell cytotoxicity, dose response, cytotoxicity control for Vif-APOBEC3G degradation inhibitor project, THP-1 cells (AID 1117359). It counts as functional. The following applies: Human immunodeficiency virus 1, THP-1.
Assay [2] deals with Macrophage-stimulating protein receptor (Homo sapiens, UniProt Q04912). The experiment in a line: Navigating the Kinome. Panel member name: MST1R. Format: functional.
Sequence of Macrophage-stimulating protein receptor (Q04912 25-304 limits assumed): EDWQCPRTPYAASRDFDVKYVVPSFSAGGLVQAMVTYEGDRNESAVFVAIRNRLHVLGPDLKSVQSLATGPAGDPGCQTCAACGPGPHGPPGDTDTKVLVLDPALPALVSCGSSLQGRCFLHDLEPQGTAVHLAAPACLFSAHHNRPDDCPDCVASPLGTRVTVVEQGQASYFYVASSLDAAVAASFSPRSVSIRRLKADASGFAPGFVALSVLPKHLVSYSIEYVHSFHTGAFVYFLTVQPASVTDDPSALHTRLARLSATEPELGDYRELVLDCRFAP
Sequence of Macrophage-stimulating protein receptor (Q04912 310-1400 limits assumed): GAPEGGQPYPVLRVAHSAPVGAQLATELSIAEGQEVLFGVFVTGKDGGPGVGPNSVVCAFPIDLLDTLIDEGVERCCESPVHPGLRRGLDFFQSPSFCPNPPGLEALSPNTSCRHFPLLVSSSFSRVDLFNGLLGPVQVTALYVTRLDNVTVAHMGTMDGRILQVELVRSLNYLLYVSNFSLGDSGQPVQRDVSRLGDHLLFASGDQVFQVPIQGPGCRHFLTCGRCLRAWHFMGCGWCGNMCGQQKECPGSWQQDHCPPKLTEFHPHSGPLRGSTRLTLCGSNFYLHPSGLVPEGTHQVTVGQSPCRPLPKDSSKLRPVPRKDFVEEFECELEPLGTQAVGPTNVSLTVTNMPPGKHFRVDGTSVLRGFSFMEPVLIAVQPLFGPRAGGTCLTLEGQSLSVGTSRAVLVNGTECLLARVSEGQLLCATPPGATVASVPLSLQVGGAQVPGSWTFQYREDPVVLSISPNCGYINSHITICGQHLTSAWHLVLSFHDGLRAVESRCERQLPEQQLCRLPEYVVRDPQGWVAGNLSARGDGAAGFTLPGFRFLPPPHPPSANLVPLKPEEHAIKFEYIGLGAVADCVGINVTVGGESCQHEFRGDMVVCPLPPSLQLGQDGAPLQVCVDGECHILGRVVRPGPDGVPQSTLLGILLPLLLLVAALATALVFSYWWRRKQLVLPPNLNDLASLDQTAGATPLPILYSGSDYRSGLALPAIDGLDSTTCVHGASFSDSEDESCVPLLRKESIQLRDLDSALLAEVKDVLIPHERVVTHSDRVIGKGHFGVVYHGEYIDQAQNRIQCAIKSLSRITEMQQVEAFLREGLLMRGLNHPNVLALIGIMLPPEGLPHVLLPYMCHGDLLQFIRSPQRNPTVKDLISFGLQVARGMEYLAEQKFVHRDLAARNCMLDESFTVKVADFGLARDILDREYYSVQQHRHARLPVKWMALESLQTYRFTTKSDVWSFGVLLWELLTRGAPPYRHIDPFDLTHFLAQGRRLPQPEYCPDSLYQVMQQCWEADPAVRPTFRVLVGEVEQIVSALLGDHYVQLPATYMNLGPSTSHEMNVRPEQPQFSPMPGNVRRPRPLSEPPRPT
The target in assay [3] is Leukocyte tyrosine kinase receptor (Homo sapiens, UniProt P29376). The experiment in a line: Navigating the Kinome. Panel member name: LTK. Format: functional.
Sequence of Leukocyte tyrosine kinase receptor (P29376 whole entry, the tested form may be a part): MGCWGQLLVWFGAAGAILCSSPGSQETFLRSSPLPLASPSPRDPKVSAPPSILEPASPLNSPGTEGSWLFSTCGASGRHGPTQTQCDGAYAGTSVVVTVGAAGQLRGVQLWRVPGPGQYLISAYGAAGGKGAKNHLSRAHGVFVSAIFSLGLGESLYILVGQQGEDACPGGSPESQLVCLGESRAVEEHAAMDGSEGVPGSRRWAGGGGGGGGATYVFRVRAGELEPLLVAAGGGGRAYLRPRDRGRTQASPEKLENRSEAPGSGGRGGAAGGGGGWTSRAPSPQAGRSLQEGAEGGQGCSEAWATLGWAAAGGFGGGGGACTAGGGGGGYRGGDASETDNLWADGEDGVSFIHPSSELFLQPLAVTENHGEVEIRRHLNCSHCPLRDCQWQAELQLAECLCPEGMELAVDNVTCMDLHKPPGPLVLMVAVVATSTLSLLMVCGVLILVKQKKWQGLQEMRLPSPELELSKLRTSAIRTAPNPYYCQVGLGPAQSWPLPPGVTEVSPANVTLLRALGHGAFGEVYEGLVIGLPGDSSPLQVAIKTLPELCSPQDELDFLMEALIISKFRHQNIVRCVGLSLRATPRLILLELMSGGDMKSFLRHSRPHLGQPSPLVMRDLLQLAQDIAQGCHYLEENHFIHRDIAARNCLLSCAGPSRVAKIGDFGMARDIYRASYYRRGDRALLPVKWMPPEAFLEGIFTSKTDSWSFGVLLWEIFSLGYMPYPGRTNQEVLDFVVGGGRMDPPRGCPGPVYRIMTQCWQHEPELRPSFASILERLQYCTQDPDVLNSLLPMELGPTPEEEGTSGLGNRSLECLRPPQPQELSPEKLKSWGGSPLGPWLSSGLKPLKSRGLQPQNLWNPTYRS
In a further assay the target is LIM domain kinase 1 (Homo sapiens, UniProt P53667). The experiment in a line: Navigating the Kinome. Panel member name: LIMK1. Format: functional.
Sequence of LIM domain kinase 1 (P53667 whole entry, the tested form may be a part): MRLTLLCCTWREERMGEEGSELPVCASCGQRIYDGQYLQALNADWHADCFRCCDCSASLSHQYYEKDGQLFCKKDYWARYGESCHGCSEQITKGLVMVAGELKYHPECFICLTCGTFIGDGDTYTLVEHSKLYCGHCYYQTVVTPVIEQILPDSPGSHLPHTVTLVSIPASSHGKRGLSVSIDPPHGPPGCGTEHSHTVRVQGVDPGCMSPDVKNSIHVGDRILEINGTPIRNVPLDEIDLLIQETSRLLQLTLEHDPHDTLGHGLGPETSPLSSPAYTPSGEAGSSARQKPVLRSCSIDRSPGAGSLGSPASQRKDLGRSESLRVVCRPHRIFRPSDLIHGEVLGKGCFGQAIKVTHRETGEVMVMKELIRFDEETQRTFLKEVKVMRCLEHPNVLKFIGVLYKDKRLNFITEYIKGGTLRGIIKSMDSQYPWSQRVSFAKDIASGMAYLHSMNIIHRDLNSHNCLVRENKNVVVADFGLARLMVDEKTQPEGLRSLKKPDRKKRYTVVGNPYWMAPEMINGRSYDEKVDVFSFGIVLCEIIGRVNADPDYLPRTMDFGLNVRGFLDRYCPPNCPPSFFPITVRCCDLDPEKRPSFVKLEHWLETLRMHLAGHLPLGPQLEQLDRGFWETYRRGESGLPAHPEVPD
Assay [4] concerns the target Inhibitor of nuclear factor kappa-B kinase subunit epsilon (Homo sapiens, UniProt Q14164). The experiment in a line: Navigating the Kinome. Panel member name: IKBKE. It counts as functional.
For another assay, the target named is Focal adhesion kinase 1 (Homo sapiens, UniProt Q05397). It counts as functional.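 Also: measured as one member of a kinome panel.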
Sequence of Focal adhesion kinase 1 (Q05397 whole entry): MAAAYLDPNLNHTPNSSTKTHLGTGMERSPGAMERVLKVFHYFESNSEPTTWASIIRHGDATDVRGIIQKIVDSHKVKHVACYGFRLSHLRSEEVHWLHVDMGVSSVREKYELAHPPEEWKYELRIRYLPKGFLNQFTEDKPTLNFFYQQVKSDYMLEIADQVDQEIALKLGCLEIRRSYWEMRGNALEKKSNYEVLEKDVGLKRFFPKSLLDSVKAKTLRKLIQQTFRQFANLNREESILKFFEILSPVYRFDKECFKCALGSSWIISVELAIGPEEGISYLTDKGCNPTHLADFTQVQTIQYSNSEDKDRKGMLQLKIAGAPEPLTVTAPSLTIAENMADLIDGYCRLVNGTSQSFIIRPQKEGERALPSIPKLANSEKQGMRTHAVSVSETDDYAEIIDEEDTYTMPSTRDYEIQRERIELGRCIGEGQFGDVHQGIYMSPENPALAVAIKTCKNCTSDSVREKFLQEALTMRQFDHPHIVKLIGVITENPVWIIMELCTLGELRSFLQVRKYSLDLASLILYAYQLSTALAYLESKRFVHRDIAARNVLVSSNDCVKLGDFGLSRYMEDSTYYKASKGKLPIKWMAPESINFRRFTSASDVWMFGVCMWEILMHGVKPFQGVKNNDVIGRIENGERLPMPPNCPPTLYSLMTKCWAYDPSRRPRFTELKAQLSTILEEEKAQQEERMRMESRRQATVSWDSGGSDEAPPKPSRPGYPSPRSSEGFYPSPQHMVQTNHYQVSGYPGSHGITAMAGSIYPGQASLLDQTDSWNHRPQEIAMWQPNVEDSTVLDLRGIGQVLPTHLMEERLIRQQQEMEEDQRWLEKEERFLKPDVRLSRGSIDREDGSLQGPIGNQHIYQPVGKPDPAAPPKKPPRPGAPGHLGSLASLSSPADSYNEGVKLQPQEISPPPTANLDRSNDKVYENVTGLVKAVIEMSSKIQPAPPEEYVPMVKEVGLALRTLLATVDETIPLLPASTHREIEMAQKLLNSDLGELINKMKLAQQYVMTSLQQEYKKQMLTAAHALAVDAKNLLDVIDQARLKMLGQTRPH
Assay [5] has as its target Intestinal-type alkaline phosphatase (Homo sapiens, UniProt P09923). In words: activation of human intestinal alkaline phosphatase – biochemical, dose response (AID 488873). Format: functional.
Assay [6] deals with T2, 1-phosphatidylinositol 4,5-bisphosphate phosphodiesterase gamma-1 (Homo sapiens, UniProt P19174).
T2 sequence (P19174 whole entry): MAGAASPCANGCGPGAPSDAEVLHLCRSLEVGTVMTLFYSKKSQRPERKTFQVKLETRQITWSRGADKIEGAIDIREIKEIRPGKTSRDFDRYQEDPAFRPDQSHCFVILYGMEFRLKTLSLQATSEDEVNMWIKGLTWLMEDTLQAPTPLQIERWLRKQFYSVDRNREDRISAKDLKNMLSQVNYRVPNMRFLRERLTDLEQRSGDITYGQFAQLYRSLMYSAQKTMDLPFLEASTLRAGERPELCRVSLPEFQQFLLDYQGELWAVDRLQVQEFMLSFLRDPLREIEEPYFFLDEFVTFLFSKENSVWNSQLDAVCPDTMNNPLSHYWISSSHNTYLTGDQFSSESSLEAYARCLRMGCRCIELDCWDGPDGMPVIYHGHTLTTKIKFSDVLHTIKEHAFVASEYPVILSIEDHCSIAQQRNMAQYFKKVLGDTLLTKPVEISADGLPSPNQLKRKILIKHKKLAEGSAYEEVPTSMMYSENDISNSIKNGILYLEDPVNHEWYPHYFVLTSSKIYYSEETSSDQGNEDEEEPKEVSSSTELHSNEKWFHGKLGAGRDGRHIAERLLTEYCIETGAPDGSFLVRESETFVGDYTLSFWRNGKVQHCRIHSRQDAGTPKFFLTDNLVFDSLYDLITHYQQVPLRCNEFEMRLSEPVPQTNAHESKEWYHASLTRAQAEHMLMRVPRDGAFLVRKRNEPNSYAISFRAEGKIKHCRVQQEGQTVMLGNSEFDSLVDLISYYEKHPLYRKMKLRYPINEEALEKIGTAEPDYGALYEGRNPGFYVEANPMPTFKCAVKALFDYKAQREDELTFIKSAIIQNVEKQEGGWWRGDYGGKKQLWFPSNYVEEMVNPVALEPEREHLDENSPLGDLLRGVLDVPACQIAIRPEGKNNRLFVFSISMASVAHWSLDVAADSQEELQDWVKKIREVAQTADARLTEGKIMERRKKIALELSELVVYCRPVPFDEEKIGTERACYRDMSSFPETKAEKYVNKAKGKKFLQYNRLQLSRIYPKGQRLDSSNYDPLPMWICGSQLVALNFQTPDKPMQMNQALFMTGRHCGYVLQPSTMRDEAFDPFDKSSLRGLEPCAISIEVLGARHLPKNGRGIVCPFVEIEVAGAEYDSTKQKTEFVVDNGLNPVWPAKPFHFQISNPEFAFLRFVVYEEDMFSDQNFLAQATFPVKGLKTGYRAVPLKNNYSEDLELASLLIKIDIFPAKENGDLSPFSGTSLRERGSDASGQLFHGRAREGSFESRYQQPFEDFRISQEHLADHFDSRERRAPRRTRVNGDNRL
The experiment in a line: Counterscreen for inhibitors of phospholipase C isozymes (PLC-B3): Fluorescence-based biochemical high throughput dose response assay to identify inhibitors of phospholipase C isozymes (PLC-gamma1). A general note: Counterscreens check selectivity or assay interference.

Active and inactive are the calls of the source.

Sequence of Intestinal-type alkaline phosphatase (P09923 whole entry): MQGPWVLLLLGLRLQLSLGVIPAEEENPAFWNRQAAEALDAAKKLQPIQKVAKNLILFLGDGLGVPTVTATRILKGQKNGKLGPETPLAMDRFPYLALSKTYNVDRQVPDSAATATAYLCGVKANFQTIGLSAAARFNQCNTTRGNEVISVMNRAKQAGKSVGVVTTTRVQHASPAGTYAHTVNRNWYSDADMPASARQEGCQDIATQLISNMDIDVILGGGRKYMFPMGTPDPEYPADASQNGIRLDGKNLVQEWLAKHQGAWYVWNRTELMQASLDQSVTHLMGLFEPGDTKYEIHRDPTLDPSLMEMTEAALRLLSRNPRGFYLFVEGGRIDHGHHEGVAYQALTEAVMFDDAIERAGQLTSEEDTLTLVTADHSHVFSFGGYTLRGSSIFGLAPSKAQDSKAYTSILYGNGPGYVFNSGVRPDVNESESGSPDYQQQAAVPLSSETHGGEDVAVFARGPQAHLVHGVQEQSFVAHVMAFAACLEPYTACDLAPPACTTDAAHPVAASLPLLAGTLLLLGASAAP

For orientation: IC50 means the point on the concentration scale where inhibition reaches its midpoint. As a reminder, the CC50 is the concentration at which the toxic effect on the cells reaches its halfway point. For `CC(=O)N(C1=C(Cl)C(=O)c2ccccc2C1=O)c1ccc(C(=O)O)cc1`, at Caspase-3, the concentration for half-maximal inhibition (IC50) is 14.2 µM (active). Moreover, the CC50 in [1] is 32.4 µM (active).
For orientation: Ki means the dissociation constant of the complex between target and ligand, obtained from inhibition or displacement. Consider `Cc1ccc(-c2cc3nc(Br)cnc3[nH]2)cc1`, for which the Ki in [2] was > 3.98 µM (inactive); in assay [3], > 2.51 µM (inactive); at LIM domain kinase 1, > 3.16 µM (inactive); in assay [4], > 3.16 µM (inactive); at Focal adhesion kinase 1 it was > 6.31 µM (inactive).
The term EC50 denotes the concentration giving half of the maximal effect. For the molecule `O=C1C=C(O)c2c(O)cc(O)c(O)c2C1=O`, the EC50 in assay [5] is > 100 µM (inactive). Further, the IC50 in [6] is > 40.8 µM (inactive).
